Reference: US20120094007A1, “METHOD FOR THE IMMOBILIZATION OF CATIONIC ACTIVE INGREDIENTS ON SURFACES” (BASF SE, priority 2010, published 2012)
Where no end group is shown, it is not given here.

Tests used:
[1] = system: Escherichia coli; test: static biofilm assay on antimicrobially finished silicone surfaces (cfu/cm^2); type: cell-based; conditions: silicone surface, after intensive washing
Protocol: (§1) The effect of the antimicrobial finishing of the investigated surfaces was determined by means of a […] biofilm assay. For this, the surfaces to be tested were cut into round disks which fit into the holes of 24-well microtiter plates. In order to prevent the surfaces from slipping during the assay, the surfaces were immobilized on the bottom of the microtiter plates with the help of glass joint grease. The formation of biofilms was carried out starting from a preculture. For this, 20 ml of the standard commercial TSBY medium (Difco Laboratories, MI, USA) were inoculated with the help of a steady-state overnight culture of Staphylococcus epidermidis DSM1798, Escherichia coli DSM 5698, Proteus mirabilis DSM 4479 or Escherichia coli BL21 (DE3) with an optical density of 0.1. The preculture was incubated for 2 to 4 hours with agitation (at 200 rpm) and 37° C. until an optical density of from 2 to 3 was reached. In order to start the biofilm assay, the preculture was diluted to an optical density of 0.0004 in 5% TSBY in saline (0.9% NaCl) (ca. 10^5 cfu/ml). 1 ml of this was placed onto the surfaces in the 24-well plate and then incubated at 37° C. with gentle vibration at 50 rpm (revolutions per minute), so that a biofilm could form on the surface. The biofilm on the surfaces was analyzed after one hour (1 h) and after 24 hours (24 h) (and optionally 5 hours). For this, the planktonic cells were removed. The surfaces were then removed from the microtiter plate and briefly washed in sodium chloride solution, saline (0.9% NaCl). The adherent cells in the biofilm were then detached from the surface by means of an ultrasound treatment. For this purpose, the surfaces were transferred to a Falcon tube (50 ml volume) with 2 ml of saline and subjected to ultrasound for five minutes in an ultrasound water bath. The resulting bacterial suspension was diluted and plated out on TSBY agar plates. After 18 hours at 37, the resulting colonies were counted and back-calculated to the number of cells on the surface.

[2] = system: Staphylococcus epidermidis DSM1798; test: as above; type: cell-based; conditions: silicone surface, conjugates adsorbed alone from 10 mg/ml (P18 equivalents) in PBS; after washing
Protocol: as §1

PEI-P18 conjugates: polyethyleneimine (25 KDa) activated with SMCC and reacted with P18cys (KWKLFKKIPKFLHLAKKFC; SEQ ID NO: 27) (also: conjugated to polyethyleneimine (25 kDa) via SMCC)
biofilm formation by E. coli ([1]; conjugates adsorbed alone from 10 mg/ml (P18 equivalents) in PBS): not retained on the surface so strongly that after intensive washing enough active ingredient is present to prevent biofilm formation | biofilm formation by E. coli ([1]; two-step method: hydrophobin A coating (0.5 mg/ml), then conjugates 10 mg/ml (P18 equivalents) in PBS): effective even after intensive washing | formation of a biofilm due to S. epidermidis [2]: able to prevent the formation of a biofilm
